Assay results as given in paper PMC12446476 (Nature Communications, 2025).
≈ marks a conversion by molar mass, not a printed value. Where “and” joins values, the source holds several entries; their conditions need not be identical. Identical values can stand only once. Like-named read-outs stand apart in the source and are kept apart here.

Columns and labels:
Type in all cases: cell-based, Neisseria gonorrhoeae
N. gonorrhoeae [1] = experiment: MIC determination, agar dilution (CLSI)
Procedure, shortened: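 For N. gonorrhoeae, WHO 2024 reference strains served as quality control, only whole doubling-dilution MICs were reported, and isolates were classified by EUCAST v14.0 breakpoints or ECOFF. Time-kill assays followed CLSI in Columbia broth with 1% IsoVitaleX, and viable counts came from plating serial dilutions on GC agar with IsoVitaleX.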

N. gonorrhoeae [2] = experiment: MIC determination, broth microdilution (baseline for liquid-based assays); conditions: for MIC: Neisseria gonorrhoeae
Excerpt: The 2024 WHO N. gonorrhoeae reference strains were used for quality control. Only whole MIC doubling dilutions are reported. Clinical breakpoints or the epidemiological cutoff (ECOFF, to indicate azithromycin resistance) from EUCAST (v14.0, https://www.eucast.org/clinical_breakpoints) were used to classify isolates as antimicrobial susceptible or resistant. […] Two times the standard inoculum defined by CLSI was used to establish consistent growth in untreated control samples for some strains. In vitro time-kill assays were performed according to CLSI guidelines[65] using Columbia Broth (BD Difco) supplemented with 1% IsoVitaleX Enrichment (BD). Viable bacterial counts were generated by plating 10-fold serially diluted samples on GC agar plates containing 1% IsoVitaleX Enrichment (BD).

[3] = test system: intracellular N. gonorrhoeae; experiment: Intracellular killing in HeLa229 cells; conditions: for reduction of intracellular bacteria: within 24 h; for Colony forming units (CFU) of N. gonorrhoeae internalised in HeLa229 cells, colony count: dilution 0, replicates 1-3, counts 1-2
Protocol: Intracellular killing was assessed within HeLa229 cells (European Collection of Authenticated Cell Cultures, London, UK) that were seeded at ~3 × 10^5 cells/mL and grown to 70–80% confluence in RPMI-glutamine media supplemented with 10% (v/v) heat-inactivated fetal bovine serum (FBS, Gibco, MA, USA). Cells were incubated at 37 °C with 5% CO2 for 24 h, then washed with serum-free RPMI-1640 prior to infection. N. gonorrhoeae was scraped from agar plates and resuspended in Dulbecco’s Phosphate Buffered Saline (DPBS, Sigma-Aldrich), pelleted, then resuspended in RPMI with 2% FBS. Bacterial suspensions were used to infect HeLa229 cells at a multiplicity of infection of 100:1. Plates were briefly centrifuged (500 × g for 5 min), then incubated for one hour. This incubation and all subsequent incubations were performed at 37 °C with 5% CO2. Non-adherent cells were removed by washing with serum-free RPMI, and the remaining extracellular bacteria were killed via resuspension in RPMI-glutamine supplemented with 2% FBS and 200 μg/mL gentamycin and incubation for one hour. […] Azithromycin-treated samples were included for control/comparison. […] Samples were diluted and plated onto chocolate II agar for viable bacteria quantification. Intracellular killing assays were performed at Microbiologics, Kalamazoo, MI, USA, using a method adapted from previous studies[68],[69].

N. gonorrhoeae [4] = experiment: In vitro selection of mutants with reduced susceptibility
Protocol: N. gonorrhoeae strains were grown overnight on chocolate agar plates, as described above. […] Plates were incubated at 35 ± 2 °C in a humid 5% CO2–enriched atmosphere for 48–72 h.

[5] = Neisseria gonorrhoeae, 100 contemporary clinical N. gonorrhoeae isolates

`Cc1c(CN(C)C(=O)/C=C/c2cnc3c(c2)N[C@H](C)[C@H](O)C(=O)N3)oc2ccccc12` [Debio 1453] was tested. Which MIC50 (N. gonorrhoeae [1]; [5]) did it give?
Its MIC50 is 0.06 µg/mL (≈ 0.143 µM).

And the MIC90 (N. gonorrhoeae [1]; [5])?
The MIC90 was 0.06 µg/mL (≈ 0.143 µM).

What about the NgMIC50 (N. gonorrhoeae [1]; screening panel of 14 N. gonorrhoeae isolates) of the same compound?
The NgMIC50 was 0.03 µg/mL.

And the “MIC, broth microdilution” value (N. gonorrhoeae [2]; 6804)?
The value was 0.06 µg/mL (≈ 0.143 µM).

And the “MIC, broth microdilution” value (N. gonorrhoeae [2]; AR Bank0175)?
The value was 0.06 µg/mL (≈ 0.143 µM).

What about the “MIC, broth microdilution” value (N. gonorrhoeae [2]; AR Bank0179) of the same compound?
The value was 0.06 µg/mL (≈ 0.143 µM).

And the MIC (N. gonorrhoeae [2]; ATCC49226, read-out: MIC, broth microdilution, ATCC 49226)?
The MIC was 0.125 µg/mL (≈ 0.297 µM).

What about the MIC (N. gonorrhoeae [2]; ATCC700825, ATCC 700825, read-out: MIC, broth microdilution) of the same compound?
Its MIC is 0.03 µg/mL (≈ 0.0713 µM).

What about the MIC (N. gonorrhoeae [2]; read-out: MIC, broth microdilution, WHO V) of the same compound?
The MIC was 0.125 µg/mL (≈ 0.297 µM).

What about the MIC (N. gonorrhoeae [2]; read-out: MIC, broth microdilution, WHO X) of the same compound?
The MIC was 0.125 µg/mL (≈ 0.297 µM).

What about the MIC (N. gonorrhoeae [2]; read-out: MIC, broth microdilution, WHO Y) of the same compound?
The MIC was 0.125 µg/mL (≈ 0.297 µM).

What about the MIC (N. gonorrhoeae [2]; read-out: MIC, broth microdilution, WHO Z) of the same compound?
The MIC was 0.125 µg/mL (≈ 0.297 µM).

And the MIC (N. gonorrhoeae [2]; 6926, read-out: MIC, broth microdilution)?
Its MIC is 0.06 µg/mL (≈ 0.143 µM).

And the “reduction of intracellular bacteria” value ([3]; ATCC 49226 in HeLa229 cells)?
The value was no less than 3.1 log10CFU/mL.

And the “reduction of intracellular bacteria” value ([3]; WHO X in HeLa229 cells)?
Its value is no less than 2.8 log10CFU/mL.

What about the “Colony forming units (CFU) of N. gonorrhoeae internalised in HeLa229 cells, colony count” value (shortened to “Colony forming units (CFU)”) ([3]; isolate ATCC 49226, 3 hr, 2X MIC) of the same compound?
The value was 39 CFU and 23 CFU and 37 CFU and 34 CFU and 36 CFU and 40 CFU.

What about the “Colony forming units (CFU)” value ([3]; isolate ATCC 49226, 3 hr, 4X MIC) of the same compound?
Its value is 53 CFU and 63 CFU and 32 CFU and 35 CFU and 51 CFU and 39 CFU.

And the “Colony forming units (CFU)” value ([3]; isolate ATCC 49226, 3 hr, 8X MIC)?
Its value is 26 CFU and 40 CFU and 33 CFU (2×) and 29 CFU and 38 CFU.

What about the “Colony forming units (CFU)” value ([3]; isolate ATCC 49226, 6 hr, 2X MIC) of the same compound?
The value was 5 CFU.

And the “Colony forming units (CFU)” value ([3]; isolate ATCC 49226, 6 hr, 4X MIC)?
Its value is 5 CFU (2×) and 6 CFU.

What about the “Colony forming units (CFU)” value ([3]; isolate ATCC 49226, 6 hr, 8X MIC) of the same compound?
Its value is 2 CFU and 6 CFU (2×).

And the “Colony forming units (CFU)” value ([3]; isolate ATCC 49226, 10 hr, 2X MIC)?
The value was 0 CFU.

What about the “Colony forming units (CFU)” value ([3]; isolate ATCC 49226, 10 hr, 4X MIC) of the same compound?
Its value is 1 CFU (3×) and 0 CFU (3×).

What about the “Colony forming units (CFU)” value ([3]; isolate ATCC 49226, 10 hr, 8X MIC) of the same compound?
Its value is 0 CFU.

What about the “Colony forming units (CFU)” value ([3]; isolate ATCC 49226, 24 hr, 2X MIC) of the same compound?
The value was 0 CFU.

What about the “Colony forming units (CFU)” value ([3]; isolate ATCC 49226, 24 hr, 4X MIC) of the same compound?
Its value is 0 CFU.

And the “Colony forming units (CFU)” value ([3]; isolate ATCC 49226, 24 hr, 8X MIC)?
Its value is 0 CFU.

And the “Colony forming units (CFU)” value ([3]; isolate NCTC 13820, 3 hr, 2X MIC)?
The value was 27 CFU and 24 CFU (2×).

What about the “Colony forming units (CFU)” value ([3]; isolate NCTC 13820, 3 hr, 4X MIC) of the same compound?
Its value is 25 CFU and 30 CFU and 34 CFU.

What about the “Colony forming units (CFU)” value ([3]; isolate NCTC 13820, 3 hr, 8X MIC) of the same compound?
The value was 29 CFU (2×) and 25 CFU and 31 CFU.

And the “Colony forming units (CFU)” value ([3]; isolate NCTC 13820, 6 hr, 2X MIC)?
The value was 6 CFU and 12 CFU.

What about the “Colony forming units (CFU)” value ([3]; isolate NCTC 13820, 6 hr, 8X MIC) of the same compound?
The value was 5 CFU (2×) and 0 CFU and 11 CFU.

And the “Colony forming units (CFU)” value ([3]; isolate NCTC 13820, 10 hr, 2X MIC)?
Its value is 1 CFU (2×) and 2 CFU and 0 CFU.

What about the “Colony forming units (CFU)” value ([3]; isolate NCTC 13820, 10 hr, 4X MIC) of the same compound?
Its value is 1 CFU (2×) and 2 CFU (3×) and 0 CFU.

What about the “Colony forming units (CFU)” value ([3]; isolate NCTC 13820, 10 hr, 8X MIC) of the same compound?
The value was 2 CFU and 1 CFU (2×) and 0 CFU (2×).

What about the “Colony forming units (CFU)” value ([3]; isolate NCTC 13820, 24 hr, 2X MIC) of the same compound?
Its value is 0 CFU.

And the “Colony forming units (CFU)” value ([3]; isolate NCTC 13820, 24 hr, 4X MIC)?
Its value is 0 CFU.

And the “Mutants (colonies)” value (N. gonorrhoeae [4]; 6804, 4x MIC)?
Its value is 2.

And the “Mutants (colonies)” value (N. gonorrhoeae [4]; 6804, 8x MIC)?
The value was 0.

What about the “Mutants (colonies)” value (N. gonorrhoeae [4]; 6804, 16x MIC) of the same compound?
The value was 0.

What about the “Mutants (colonies)” value (N. gonorrhoeae [4]; 6926, 4x MIC) of the same compound?
Its value is 1.

What about the “Mutants (colonies)” value (N. gonorrhoeae [4]; 6926, 8x MIC) of the same compound?
Its value is 0.

What about the “Mutants (colonies)” value (N. gonorrhoeae [4]; 6926, 16x MIC) of the same compound?
The value was 0.

What about the “Mutants (colonies)” value (N. gonorrhoeae [4]; ATCC 700825, 16x MIC) of the same compound?
Its value is 0.

And the “Mutants (colonies)” value (N. gonorrhoeae [4]; WHO Z, 4x MIC)?
Its value is 1.

What about the “Mutants (colonies)” value (N. gonorrhoeae [4]; WHO Z, 8x MIC) of the same compound?
The value was 0.

What about the “Mutants (colonies)” value (N. gonorrhoeae [4]; WHO Z, 16x MIC) of the same compound?
The value was 0.
